Broadly, the inhibition is how much of the control response was suppressed. As usually defined, the melting point is the temperature of the solid-liquid transition.

Data on five compounds can be found in patent US8273783B2, “Microbiocides” (Syngenta Crop Protection LLC, priority 2009, dated 2012).

In data set [1] the test system is Puccinia Recondita. The data set can be described thus: Preventive action against Puccinia recondita (brown rust) on wheat leaf segments. The data set is classed as in vivo. The note with it: foliar, 192 h, 0.02% active ingredient, assessed 8 days after inoculation, read-out: inhibition (preventive fungicidal activity). The text has this: Wheat leaf segments were placed on agar in multiwell plates (24-well format) and sprayed with test solutions (0.02% active ingredient). After drying, the leaf disks were inoculated with a spore suspension of the fungus.

Data set [2] has as its system Pyrenophora teres. The data set can be described thus: Action against Pyrenophora teres (net blotch) on barley leaf segments. Format: in vivo. The following applies: foliar, 96 h, 0.02% active ingredient, assessed 4 days after inoculation, read-out: inhibition (preventive fungicidal activity). The protocol: Barley leaf segments were placed on agar in multiwell plates (24-well format) and sprayed with test solutions (0.02% active ingredient). After drying, the leaf disks were inoculated with a spore suspension of the fungus. After appropriate incubation the activity of a compound was assessed 4 days after inoculation as preventive fungicidal activity.

Data set [3] concerns Mycosphaerella arachidis. The data set can be described thus: Action against Mycosphaerella arachidis, liquid culture (early leaf spot). The following applies: PDB potato dextrose broth, 0.02% active ingredient, 24° C., photometrically after 6-7 days, read-out: inhibition of growth. The data set is classed as cell-based. The protocol:
Conidia of the fungus from cryogenic storage were directly mixed into nutrient broth (PDB potato dextrose broth). After placing a (DMSO) solution of the test compounds (0.02% active ingredient) into a microtiter plate (96-well format) the nutrient broth containing the fungal spores was added. The test plates were incubated at 24° C. and the inhibition of growth was measured photometrically after 6-7 days.

In data set [4] the test system is Erysiphe Graminis f.sp. Tritici. The data set can be described thus: Action against Erysiphe graminis f.sp. tritici (wheat powdery mildew), leaf segments, preventive. The data set is classed as in vivo. The note with it: Blumeria graminis, foliar, 168 h, 0.02% active ingredient, assessed 7 days after inoculation, read-out: inhibition (preventive fungicidal activity). Here is the method:
Wheat leaf segments were placed on agar in multiwell plates (24-well format) and sprayed with test solutions (0.02% active ingredient). After drying, the leaf disks were inoculated with a spore suspension of the fungus. After appropriate incubation the activity of a compound was assessed 7 days after inoculation as preventive fungicidal activity.

The test system of data set [5] is Botryotinia fuckelianal. The data set can be described thus: Action against Botryotinia fuckeliana, liquid culture (gray mould). Format: cell-based. The note with it: Botrytis cinerea; nutrient broth, 0.02% active ingredient, 24° C., photometrically after 3-4 days; read-out: inhibition of growth. Here is the method: Conidia of the fungus from cryogenic storage were directly mixed into nutrient broth. After placing a (DMSO) solution (0.02% active ingredient) of the test compounds into a microtiter plate (96-well format) the nutrient broth containing the fungal spores was added. The test plates were incubated at 24° C. and the inhibition of growth was determined photometrically after 3-4 days.

The subject of data set [6] is Puccinia Recondita. The data set can be described thus: Curative action against Puccinia recondita (brown rust) on wheat leaf segments. Format: in vivo. The note with it: foliar, sprayed one day after inoculation, 0.02% active ingredient, assessed 8 days after inoculation, read-out: inhibition (curative fungicidal activity). An excerpt:
Wheat leaf segments were placed on agar in multiwell plates (24-well format) and inoculated with a spore suspension of the fungus. One day after inoculation the leaf segments were sprayed with test solutions (0.02% active ingredient).

Data set [7] concerns Phaeosphaeria nodorum. The data set can be described thus: Preventive action against Phaeosphaeria nodorum (glume blotch) on wheat leaf segments. The data set is classed as in vivo. The note with it: Parastagonospora nodorum, foliar, 96 h, 0.02% active ingredient, assessed 4 days after inoculation, read-out: inhibition (preventive fungicidal activity). Here is the method: Wheat leaf segments were placed on agar in a multiwell plate (24-well format) and sprayed with test solutions (0.02% active ingredient). After drying, the leaf disks were inoculated with a spore suspension of the fungus. After appropriate incubation the activity of a compound was assessed 4 days after inoculation as preventive fungicidal activity.

Molecules are shown by their SMILES.

As to `COC(c1csc(Cl)c1Cl)C(C)N(OC)C(=O)c1cn(C)nc1C(F)F` (stereo not drawn) [1.037 (diastereoisomer pair 1), 3-difluoromethyl-1-methyl-1H-pyrazole-4-carboxylic acid methoxy-[2-methoxy-1-methyl-2-(4,5-dichlorothiophen-3-yl)ethyl]amide], the inhibition at 0.02 % strength in data set [1], in data set [2], in data set [3], in data set [4] and in data set [5] was no less than 80% throughout.
Turning to `COC(c1csc(Cl)c1Cl)C(C)N(OC)C(=O)c1cn(C)nc1C(F)F` (centres unmarked) [Compound 1.037, 3-difluoromethyl-1-methyl-1H-pyrazole-4-carboxylic acid methoxy-[2-methoxy-1-methyl-2-(4,5-dichlorothiophen-3-yl)ethyl]amide], the melting point is 80 to 83 °C.
With `COC(c1csc(Cl)c1Cl)C(C)N(OC)C(=O)c1cn(C)nc1C(F)F` (stereo not drawn) [1.037 (diastereoisomer pair 2), 3-difluoromethyl-1-methyl-1H-pyrazole-4-carboxylic acid methoxy-[2-methoxy-1-methyl-2-(4,5-dichlorothiophen-3-yl)ethyl]amide], the inhibition at 0.02 % strength in data set [6] is no less than 80%.
As to `CON(C(=O)c1cn(C)nc1C(F)F)C(C)Cc1c(Cl)sc(Cl)c1Cl` (centres unmarked) [Compound 1.001, 3-difluoromethyl-1-methyl-1H-pyrazole-4-carboxylic acid methoxy-[1-methyl-2-(2,4,5-trichlorothiophene-3-yl)ethyl]amide], the melting point lay in the range of 70 to 72 °C. Moreover, the inhibition at 0.02 % strength in data set [1] is no less than 80%. Also, the inhibition at 0.02 % strength in data set [2] is no less than 80%. Also, the inhibition at 0.02 % strength in data set [3] is no less than 80%. In addition, in data set [7], the inhibition at 0.02 % strength is no less than 80%. Also, the inhibition at 0.02 % strength in data set [6] was no less than 80%. Moreover, the inhibition at 0.02 % strength in data set [4] was no less than 80%. Besides, in data set [5], the inhibition at 0.02 % strength was no less than 80%.
`COC(c1c(Cl)sc(Cl)c1Cl)C(C)N(OC)C(=O)c1cn(C)nc1C(F)F` (centres unmarked) [Compound 1.016, 3-difluoromethyl-1-methyl-1H-pyrazole-4-carboxylic acid methoxy-[2-methoxy-1-methyl-2-(2,4,5-trichlorothiophene-3-yl)ethyl]amide] showed a melting point of 113 to 116 °C. Besides, the inhibition at 0.02 % strength in data set [1] is no less than 80%. In data set [2], the inhibition at 0.02 % strength is no less than 80%. The inhibition at 0.02 % strength in data set [3] was no less than 80%. Further, the inhibition at 0.02 % strength in data set [7] is no less than 80%. Moreover, the inhibition at 0.02 % strength in data set [6] is no less than 80%. Besides, the inhibition at 0.02 % strength in data set [4] was no less than 80%. The inhibition at 0.02 % strength in data set [5] was no less than 80%.
